{
  "source": "patent US20250367171A1",
  "about": "“THERAPEUTIC OR PROPHYLACTIC AGENT FOR PERIPHERAL NEUROPATHIES” (Toray Industries, Inc., priority 2017, published 2025)",
  "key": {"[1]": {"system": "co-culture of rat dorsal root ganglion neurons and Schwann cells", "assay": "Myelination in co-culture, MBP immunostaining, number of myelin sheath segments", "type": "cell-based", "details": "30 μM with ascorbic acid treatment, vs vehicle treatment group", "method": "The dorsal root ganglion was excised from a fetus of a female SD rat at 15 days of pregnancy, and then neurons and Schwann precursor cells thereof were separately cultured (the initial day of cell culture was designated as Day 1). On day 19 from the initial day of cell culture (Day19), Schwann precursor cells were added to the culture of neurons to initiate co-culture. Myelination was induced by treatment with ascorbic acid (a total of 4 to 5 times in accordance with 2 to 3 times of medium exchange) on the 26th to 40th days (Days 26 to 40) from the initial day of cell culture.\nIn combination with ascorbic acid treatment, treatment with compound 1 dissolved in sterile distilled water (final concentration of 30 μM) was performed 4 to 5 times in total. As a control, treatment with sterile distilled water instead of the compound 1 solution was performed. Groups were composed of 2 groups: a sterile distilled water treatment group (Vehicle treatment group); and a 30 μM compound 1 treatment group (compound 1 treatment group). […]\nFluorescent images of MBP were taken with a fluorescence microscope (DMI4000B, Leica), and then the number of myelin sheath segments (≥25 μm) was analyzed based on the images. […]"}, "[2]": {"system": "myelin basic protein (MBP) in co-culture of rat dorsal root ganglion neurons and Schwann cells", "assay": "Expression level of MBP in co-culture, Western blotting", "type": "cell-based", "details": "30 μM, day 43 of culture, vs vehicle treatment group", "method": "In a manner similar to Example 3, co-culture of rat dorsal root ganglion neurons and Schwann cells was prepared, myelination was induced, and then treatment with compound 1 was performed. Groups were composed of 2 groups: a sterile distilled water treatment group (Vehicle treatment group); and a 30 μM compound 1 treatment group (compound 1 treatment group).\nFor Western blotting, on day 43 from the initial day of cell culture, the co-culture was lysed in a RIPA cell lysis solution, and then the cell lysate was subjected to sodium dodecyl sulfate-polyacrylamide gel electrophoresis. Subsequently, the protein was transferred to a PVDF membrane, and then an MBP band was detected by antibody reaction. Image Lab software (BIO-RAD) was used for quantifying the thus detected band."}, "[3]": {"system": "rat oxaliplatin-induced peripheral neuropathy model", "assay": "Cold allodynia (cold plate test) in rat oxaliplatin-induced peripheral neuropathy model", "type": "in vivo", "details": "10 mg/kg oral twice a day, day 12 after induction, vs vehicle group", "method": "Oxaliplatin (4 mg/kg, Elplat I.V. infusion solution […]; Yakult) was administered to SD rats (7 weeks old, male; CHARLES RIVER LABORATORIES JAPAN, INC.) in a cycle of 1 week (intraperitoneally administered twice, two consecutive days per week) for 2 or 3 weeks, thereby preparing an oxaliplatin-induced peripheral neuropathy model. As a control (pseudo-induction), a 5% glucose solution (Otsuka Pharmaceutical Factory, Inc.) was administered. The initial day of administration was designated as day 0 after induction of pathological conditions.\nA solution containing compound 1 (3 or 10 mg/kg) or a solvent thereof (water for injection; Otsuka Pharmaceutical Factory, Inc.) was orally administered everyday (twice a day) (2nd administration was performed 8 hours after the 1st administration) to rats from day 0 after induction of pathological conditions for 18 days. […]\nThe beneficial effects on cold allodynia were evaluated before induction of pathological conditions and on day 12 after induction of pathological conditions (before the 1st administration of compound 1). Beneficial effects on cool allodynia were evaluated by cold plate test. […] An animal was placed on a plate kept at a predetermined temperature (8° C.), and then the withdrawal latency required until pain-related behaviors (hind paw lifting, hind paw shaking, hind paw licking, standing, or jumping) were confirmed was measured. […]"}, "[4]": {"system": "rat bortezomib-induced peripheral neuropathy model", "assay": "Mechanical allodynia (von Frey test) in rat bortezomib-induced peripheral neuropathy model", "type": "in vivo", "details": "20 mg/kg oral single dose, day 15, 3 hours after administration, vs vehicle group", "method": "Bortezomib (0.2 mg/kg, AdooQ BioScience) was intraperitoneally administered 4 times in total to SD rats (6 weeks old, male; CHARLES RIVER LABORATORIES JAPAN, INC.) on days 1, 4, 8 and 11 after induction of pathological conditions, thereby preparing a bortezomib-induced peripheral neuropathy model. Here, the initial day of administration was designated as the 1st day (Day1) after induction of pathological conditions. Bortezomib was dissolved in dimethyl sulfoxide, and then Tween80 was added. Subsequently, water for injection was added to prepare a 0.2 mg/mL solution. The final concentration of dimethyl sulfoxide and that of Tween80 were each 5%.\nOn day 15 after induction of pathological conditions, a solution containing compound 1 (20 mg/kg) or a solvent thereof (water for injection) was orally administered to rats. Groups were composed of 2 groups: a solvent administration group (vehicle group) and a compound 1 (20 mg/kg) administration group.\nBeneficial effects on mechanical allodynia were evaluated in a manner similar to Example 5, and this evaluation was performed before and on day 15 after induction of pathological conditions (3 hours after administration of compound 1)."}, "[5]": {"system": "rat experimental autoimmune neuritis (EAN) model", "assay": "Mechanical allodynia (von Frey test) in rat EAN model", "type": "in vivo", "details": "day 14, 3 hours after administration, vs vehicle group", "method": "EAN model rats were prepared in a manner similar to Example 9. Further, a pseudo-induction animal was prepared by administering physiological saline (Otsuka Pharmaceutical Factory, Inc.) instead of a peptide solution for administration. The day of administration of the peptide solution for administration or physiological saline was designated as day 0 after induction of pathological conditions.\nOn day 14 after induction of pathological conditions, compound 1 (5 or 10 mg/kg) or a solvent thereof (water for injection) was orally administered to rats. Groups were composed of 4 groups: a pseudo-induction and solvent administration group (sham group); a pathological condition-induced and solvent administration group (vehicle group); a pathological condition-induced and compound 1 (5 mg/kg) administration group (compound 1 (5 mg/kg) group); and a pathological condition-induced and compound 1 (10 mg/kg) administration group (compound 1 (10 mg/kg) administration group).\nBeneficial effects on mechanical allodynia were evaluated in a manner similar to Example 5, and this evaluation was performed at 3 hours after administration of compound 1 on day 14 after induction of pathological conditions."}},
  "data": [
    {"smiles": "CN(C)C1CCN(C(=O)C[C@H](O)c2nccn2C)CC1", "note": "[Compound 1, (S)-1-(4-(dimethylamino)piperidin-1-yl)-3-hydroxy-3-(1-methyl-1H-imidazol-2-yl)propan-1-one]", "values": [
      {"measurement": "number of myelin sheath segments", "setting": "[1]", "value": "Increased number of myelin sheath segments"},
      {"measurement": "myelin sheath marker protein MBP expression level", "setting": "[2]", "value": "increases in the myelin sheath marker protein, MBP"},
      {"measurement": "withdrawal latency in cold plate test (cold allodynia)", "setting": "[3]", "value": "significantly prolonged withdrawal latency"},
      {"measurement": "50% response threshold in von Frey test (mechanical allodynia)", "setting": "[4]", "value": "significant increase in 50% response threshold"},
      {"measurement": "50% response threshold in von Frey test (mechanical allodynia)", "setting": "[5]; 5 mg/kg oral single dose", "value": "Significant increases in 50% response threshold"},
      {"measurement": "50% response threshold in von Frey test (mechanical allodynia)", "setting": "[5]; 10 mg/kg oral single dose", "value": "Significant increases in 50% response threshold"}
    ]}
  ]
}
